From ChEMBL document CHEMBL6121021, “Design and Synthesis of Topoisomerases-Histone Deacetylase Dual Targeted Quinoline-Bridged Hydroxamates as Anticancer Agents” (J Med Chem, 2025)
Active and inactive are the calls of the source. The rule behind the calls is not given here.

Assays:
A549 [1] = assay: Induction of cell cycle arrest in human A549 cells assessed as accumulation at G2/M phase by PI staining based flow cytometry; format: functional
MDA-MB-231 [2] = assay: Anti-cancer activity against human MDA-MB-231 cells assessed as decrease in CDK-4 level at 10 uM incubated for 48 hrs by immunoblot analysis; format: functional, cell-based
MDA-MB-231 [3] = assay: Anti-cancer activity against human MDA-MB-231 cells assessed as decrease in p53 level at 1 to 5 uM incubated for 48 hrs by immunoblot analysis; format: functional, cell-based; details: dose 1-5 µM
MDA-MB-231 [4] = assay: Anti-cancer activity against human MDA-MB-231 cells assessed as decrease in p53 level at 10 uM incubated for 48 hrs by immunoblot analysis; format: functional, cell-based
MDA-MB-231 [5] = assay: Anti-cancer activity against human MDA-MB-231 cells assessed as decrease in p21 level at 1 uM incubated for 48 hrs by immunoblot analysis; format: functional, cell-based
[6] = target: Histone deacetylase 3/Nuclear receptor corepressor 2 (HDAC3/NCoR2) (Homo sapiens, UniProt O15379); assay: Inhibition of His/GST-tagged recombinant human HDAC3/NcoR2 by fluorogenic assay; format: protein-complex assay
Histone deacetylase 9 = Histone deacetylase 9 (Homo sapiens, UniProt Q9UKV0); assay: Inhibition of His-tagged recombinant human HDAC9 by fluorogenic assay
[7] = Antiproliferative activity against human PBMC cells at 10 uM incubated for 48 hrs by MTT assay; format: toxicity, cell-based
H9c2 = assay: Antiproliferative activity against rat H9c2 cells at 10 uM by JC-1 staining based analysis; format: toxicity, cell-based; details: h9c2, 10 µM
A549 [8] = assay: Induction of cell cycle arrest in human A549 cells assessed as accumulation at G2/M phase at 500 nM by PI staining based flow cytometry; format: functional
A549 [9] = assay: Induction of mitophagy in human A549 cells at 500 nM by MitoTracker Green dye based analysis; format: functional, cell-based
MDA-MB-231 [10] = assay: Anti-cancer activity against human MDA-MB-231 cells assessed as decrease in PCNA level incubated for 48 hrs by immunoblot analysis; format: functional, cell-based; details: dose 1-10 µM
MDA-MB-231 [11] = assay: Anti-cancer activity against human MDA-MB-231 cells assessed as decrease in p53 level at 1 to 3 uM incubated for 48 hrs by immunoblot analysis; format: functional, cell-based; details: dose 1-3 µM
MDA-MB-231 [12] = assay: Anti-cancer activity against human MDA-MB-231 cells assessed as decrease in p53 level at 5 to 10 uM incubated for 48 hrs by immunoblot analysis; format: functional, cell-based; details: dose 5-10 µM
[13] = Metabolic stability in human hepatocytes assessed as half life at 2 uM measured upto 120 min by LC-MS/MS analysis; format: ADME, cell-based, Hepatocyte
[14] = Metabolic stability in mouse hepatocytes assessed as hepatic clearance at 2 uM measured upto 120 min by LC-MS/MS analysis; format: ADME, cell-based, Hepatocyte
[15] = Drug metabolism in human hepatocytes assessed as oxidative deamination M1 metabolite formation at 10 uM by LC-MS/MS analysis; format: ADME, cell-based, Hepatocyte
[16] = Drug metabolism in human hepatocytes assessed as formation of O-demethylated M6 metabolite conjugated with sulphate at 10 uM by LC-MS/MS analysis; format: ADME, cell-based, Hepatocyte
A549 [17] = assay: In vivo induction of apoptosis in human A549 cells xenografted in athymic nude Crl:NU-Foxn1nu mouse assessed as increase in Bcl-2 level at 30 mg/kg, po administered twice a week for 1 month by immunoblot analysis; format: functional, organism-based; details: time 1.0 months
A549 [18] = assay: In vivo anti-migratory activity in human A549 cells xenografted in athymic nude Crl:NU-Foxn1nu mouse assessed as decrease in vimentin mRNA level at 30 mg/kg, po administered twice a week for 1 month by qPCR analysis; format: functional, organism-based; details: time 1.0 months

Histone deacetylase 3/Nuclear receptor corepressor 2 (HDAC3/NCoR2), sequence (O15379 whole entry): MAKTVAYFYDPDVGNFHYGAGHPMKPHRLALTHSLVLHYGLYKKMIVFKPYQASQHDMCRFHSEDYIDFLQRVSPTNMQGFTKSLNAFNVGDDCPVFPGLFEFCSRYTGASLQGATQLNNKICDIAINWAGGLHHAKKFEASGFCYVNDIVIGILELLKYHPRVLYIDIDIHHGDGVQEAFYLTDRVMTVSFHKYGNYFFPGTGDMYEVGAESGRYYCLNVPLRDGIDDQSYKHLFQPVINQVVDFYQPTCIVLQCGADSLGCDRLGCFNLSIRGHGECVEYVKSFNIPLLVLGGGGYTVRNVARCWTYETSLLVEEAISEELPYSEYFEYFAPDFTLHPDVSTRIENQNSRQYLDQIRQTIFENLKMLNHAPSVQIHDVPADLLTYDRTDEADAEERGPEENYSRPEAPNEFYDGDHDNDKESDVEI
Histone deacetylase 3/Nuclear receptor corepressor 2 (HDAC3/NCoR2), sequence (Q9Y618 whole entry, further chain): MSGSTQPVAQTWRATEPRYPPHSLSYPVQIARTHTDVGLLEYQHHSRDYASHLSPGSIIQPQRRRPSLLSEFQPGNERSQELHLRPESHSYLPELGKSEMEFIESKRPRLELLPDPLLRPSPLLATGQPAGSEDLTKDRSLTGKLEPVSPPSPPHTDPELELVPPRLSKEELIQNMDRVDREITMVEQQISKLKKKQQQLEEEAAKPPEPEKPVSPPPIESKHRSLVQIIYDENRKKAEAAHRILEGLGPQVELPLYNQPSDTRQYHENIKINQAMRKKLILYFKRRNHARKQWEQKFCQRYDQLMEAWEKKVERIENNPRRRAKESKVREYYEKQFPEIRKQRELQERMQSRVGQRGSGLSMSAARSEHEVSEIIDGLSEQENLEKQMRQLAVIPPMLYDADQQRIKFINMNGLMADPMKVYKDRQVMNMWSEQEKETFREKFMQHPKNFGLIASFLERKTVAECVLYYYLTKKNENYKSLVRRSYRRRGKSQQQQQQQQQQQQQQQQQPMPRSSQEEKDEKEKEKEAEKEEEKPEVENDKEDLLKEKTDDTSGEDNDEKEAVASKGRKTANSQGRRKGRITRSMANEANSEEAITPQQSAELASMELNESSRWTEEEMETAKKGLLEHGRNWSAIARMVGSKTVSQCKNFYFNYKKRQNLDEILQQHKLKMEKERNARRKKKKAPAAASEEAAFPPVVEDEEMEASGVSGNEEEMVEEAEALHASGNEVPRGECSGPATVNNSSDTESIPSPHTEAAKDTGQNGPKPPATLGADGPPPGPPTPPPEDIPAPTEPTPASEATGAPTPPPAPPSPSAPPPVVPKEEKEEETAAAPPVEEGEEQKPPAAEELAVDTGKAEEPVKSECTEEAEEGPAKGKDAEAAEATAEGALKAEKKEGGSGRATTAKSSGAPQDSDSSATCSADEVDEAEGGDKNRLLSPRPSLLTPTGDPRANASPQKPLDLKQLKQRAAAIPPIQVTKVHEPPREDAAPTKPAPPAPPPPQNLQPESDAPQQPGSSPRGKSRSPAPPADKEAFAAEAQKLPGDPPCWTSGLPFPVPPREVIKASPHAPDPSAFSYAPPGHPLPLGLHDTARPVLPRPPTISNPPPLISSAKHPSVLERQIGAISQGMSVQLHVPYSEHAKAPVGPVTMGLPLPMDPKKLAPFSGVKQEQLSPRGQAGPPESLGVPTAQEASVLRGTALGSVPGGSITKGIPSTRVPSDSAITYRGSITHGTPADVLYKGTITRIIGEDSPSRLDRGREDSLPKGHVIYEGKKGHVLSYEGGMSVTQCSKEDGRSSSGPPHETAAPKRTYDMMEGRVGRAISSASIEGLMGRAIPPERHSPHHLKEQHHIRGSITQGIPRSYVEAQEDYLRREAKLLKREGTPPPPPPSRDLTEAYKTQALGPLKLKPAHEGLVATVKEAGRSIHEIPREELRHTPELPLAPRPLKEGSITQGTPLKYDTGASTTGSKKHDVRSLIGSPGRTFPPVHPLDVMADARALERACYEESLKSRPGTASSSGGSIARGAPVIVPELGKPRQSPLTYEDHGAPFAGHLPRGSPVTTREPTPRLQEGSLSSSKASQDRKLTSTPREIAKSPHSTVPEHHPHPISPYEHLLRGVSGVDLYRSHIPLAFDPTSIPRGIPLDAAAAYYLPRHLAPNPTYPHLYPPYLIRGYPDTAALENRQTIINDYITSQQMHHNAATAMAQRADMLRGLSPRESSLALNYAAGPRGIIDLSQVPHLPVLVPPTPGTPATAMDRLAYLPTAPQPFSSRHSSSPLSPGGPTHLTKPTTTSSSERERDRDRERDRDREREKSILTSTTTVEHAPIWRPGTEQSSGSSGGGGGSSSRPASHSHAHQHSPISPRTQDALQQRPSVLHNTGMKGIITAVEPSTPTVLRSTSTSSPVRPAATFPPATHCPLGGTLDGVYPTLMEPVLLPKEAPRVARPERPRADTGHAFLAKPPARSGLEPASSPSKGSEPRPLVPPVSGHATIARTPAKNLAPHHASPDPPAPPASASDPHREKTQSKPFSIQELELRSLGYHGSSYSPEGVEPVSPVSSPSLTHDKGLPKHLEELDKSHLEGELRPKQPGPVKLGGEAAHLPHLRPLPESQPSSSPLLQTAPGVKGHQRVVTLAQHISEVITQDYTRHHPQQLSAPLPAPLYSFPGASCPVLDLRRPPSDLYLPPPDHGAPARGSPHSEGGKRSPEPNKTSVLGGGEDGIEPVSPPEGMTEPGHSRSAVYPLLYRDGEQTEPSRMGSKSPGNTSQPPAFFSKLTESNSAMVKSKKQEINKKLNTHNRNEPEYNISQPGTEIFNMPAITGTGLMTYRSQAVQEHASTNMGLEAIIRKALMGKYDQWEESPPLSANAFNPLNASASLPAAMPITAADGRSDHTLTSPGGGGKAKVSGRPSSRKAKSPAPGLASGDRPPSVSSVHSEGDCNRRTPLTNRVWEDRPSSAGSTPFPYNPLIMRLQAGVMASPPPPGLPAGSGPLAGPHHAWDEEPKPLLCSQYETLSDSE
Histone deacetylase 9, sequence (Q9UKV0 whole entry): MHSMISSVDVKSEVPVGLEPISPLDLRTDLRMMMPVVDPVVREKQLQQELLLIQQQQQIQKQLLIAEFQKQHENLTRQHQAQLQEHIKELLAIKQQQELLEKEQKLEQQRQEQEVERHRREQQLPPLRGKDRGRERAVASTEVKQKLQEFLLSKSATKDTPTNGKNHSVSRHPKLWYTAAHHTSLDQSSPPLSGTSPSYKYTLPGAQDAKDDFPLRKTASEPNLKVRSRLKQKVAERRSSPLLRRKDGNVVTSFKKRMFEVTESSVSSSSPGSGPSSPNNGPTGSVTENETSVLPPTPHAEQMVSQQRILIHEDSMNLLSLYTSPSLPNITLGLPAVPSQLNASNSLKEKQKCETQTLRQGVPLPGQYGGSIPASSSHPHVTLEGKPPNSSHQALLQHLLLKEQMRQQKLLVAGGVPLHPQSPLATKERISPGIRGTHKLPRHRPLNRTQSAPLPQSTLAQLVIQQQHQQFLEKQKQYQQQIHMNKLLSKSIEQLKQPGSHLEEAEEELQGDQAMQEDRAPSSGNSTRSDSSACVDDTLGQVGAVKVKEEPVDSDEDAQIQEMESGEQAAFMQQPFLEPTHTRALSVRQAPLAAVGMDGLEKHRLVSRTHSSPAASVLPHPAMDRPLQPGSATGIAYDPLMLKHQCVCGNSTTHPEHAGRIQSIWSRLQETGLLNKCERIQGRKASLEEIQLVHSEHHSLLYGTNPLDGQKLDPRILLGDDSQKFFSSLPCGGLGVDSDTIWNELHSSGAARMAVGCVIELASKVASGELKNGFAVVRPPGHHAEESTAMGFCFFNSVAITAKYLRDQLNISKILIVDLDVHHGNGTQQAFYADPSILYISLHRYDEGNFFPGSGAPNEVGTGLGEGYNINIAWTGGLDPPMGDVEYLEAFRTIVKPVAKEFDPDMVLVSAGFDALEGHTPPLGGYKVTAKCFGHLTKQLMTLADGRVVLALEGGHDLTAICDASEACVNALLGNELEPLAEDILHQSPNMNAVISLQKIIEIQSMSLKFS

**Q.** Which results are given for `COc1ccc(-c2ccc3ccc(OCCCCCCC(=O)NO)cc3n2)cc1I`?
**A.** Activity (A549 [1]): Active; Activity (MDA-MB-231 [2]): Active; Activity (MDA-MB-231 [3]): Active; Activity (MDA-MB-231 [4]): inactive; Activity (MDA-MB-231 [5]): inactive

**Q.** Which results are given for `COc1ccc(-c2ccc3cc(OCCCCCC(=O)NO)ccc3n2)cc1`?
**A.** IC50 [6]: 88.3 nM; IC50 (Histone deacetylase 9): > 100 nM; Activity [7]: Non-toxic; Activity (H9c2): Non-toxic; Activity (A549 [8]): Active; Activity (A549 [9]): Active; Activity (MDA-MB-231 [10]): Dose-dependent-effect; Activity (MDA-MB-231 [11]): Active; Activity (MDA-MB-231 [12]): inactive; half-life at 2 µM [13]: 45.7 min; CLhep predicted at 2 µM [14]: 65.9 mL/min/kg; Drug metabolism [15]: metabolite_detected; Drug metabolism [16]: metabolite_detected; Activity (A549 [17]): Active; Activity (A549 [18]): Active
